Source: patent publication US10471028B2, “Small molecule efflux pump inhibitors” (UNIVERSITY OF ROCHESTER, priority 2014, dated 2019)

How the values were obtained:
[1] = test system: A. baumannii strain 98-37-09; experiment: MEC determination: potentiation of minocycline toward serum grown A. baumannii; assay type: cell-based, Acinetobacter baumannii; settings: for Log-reduction Colony Forming Units (ml^−1): 1×MEC of compound plus minocycline in serum, versus minocycline alone, plating; for MEC: lowest concentration inhibiting growth in 100% human serum with 0.5 μg ml^−1 minocycline, 48 hr
Description: The TimTec ActiProbe-25K diversity-set and Natural Product compound libraries (29,900 compounds total; TimTec, Newark, Del.) were initially screened for putative efflux pump inhibitors by identifying compounds that potentiated the antimicrobial property of a sub-inhibitory concentration of minocycline toward A. baumannii grown in human serum. To do so, A. baumannii strain 98-37-09 was grown for 16 hours in LB medium at 37° C. on a rotary shaker at 225 rpm. Approximately 1×10^5 CFU were then transferred to individual wells of a 96-well round-bottom plate (Corning Costar, Tewksbury, Mass.) containing 100 μL of human serum supplemented with of minocycline (0.5 μg mL^−1; 0.5× minimum inhibitory concentration in serum) and individual members of the Timtec ActiProbe or Natural product library (50 μM). Plates were then incubated at 37° C. for 48 hours. Growth was measured as a function of turbidity. Putative efflux pump inhibitors were identified as compounds that inhibited A. baumannii growth in human serum containing minocycline and were subsequently retested in triplicate, as indicated above. Untreated A. baumannii grown in serum supplemented with minocycline+/−PAβN served as positive and negative controls, respectively. […] Repeat testing in which well constituents were serial diluted and plated on LB agar plates validated that 85 compounds did indeed limit A. baumannii growth in serum supplemented with minocycline, reducing the number of viable colony forming units between 2-6 log cfu in comparison to minocycline alone treated cells.
The MEC was defined as the lowest concentration of test compound required to inhibit the growth of A. baumannii in serum in the presence of 0.5 μg ml^−1 minocycline. Plating confirmed that addition of 1×MEC of each compound elicited ≥1.9-log reduction in A. baumannii cells grown in serum supplemented with minocycline alone (see Table 1).

[2] = test system: A. baumannii strain 98-37-09; experiment: Cellular accumulation of minocycline (HPLC, triple-quadrupole MS); assay type: cell-based, Acinetobacter baumannii; settings: human serum with 0.5 μg mL^−1 minocycline plus test compound (0.5×MEC, 1×MEC), 48 hours
Description: High pressure liquid chromatography and triple-quadrupole mass spectrometry were used to measure the A. baumannii intracellular levels of minocycline during growth in human serum in the absence and presence of each putative efflux pump inhibitor. […] Cultures were incubated for 48 hours with shaking, at which point an aliquot was removed, serially diluted, and plated to determine the number of viable CFU per mixture. The remainder of the cells were pelleted by centrifugation at 900×g at 4° C., washed twice in PBS, mechanically lysed with a FastPrep cell disrupter (MP Biomedicals, Santa Ana, Calif.) for 20 seconds at 5 m s^−1 and the cellular debris was pelleted via centrifugation at 900×g and 4° C. The amount of minocycline present within the supernatant of ruptured cells was measured. Briefly, doxycycline (0.5 μg mL^−1) was first added to each supernatant to serve as an internal control to account for sample-to-sample preparation variability. The supernatant was then combined with acetonitrile (ACN) at a 1:10 ratio and centrifuged at 16,000×g, at 4° C., to collect minocycline and doxycycline. […] residual liquid was evaporated in a speed vacuum for 2 hours at 8,000×g. To quantify the amount of antibiotics retained, sample materials were suspended in 50% acetonitrile, filtered through a 0.2 μm low protein binding hydrophilic membrane (Millipore, Billerica, Mass.) then separated on Shimadzu high performance liquid chromatography instrument (Fisher Scientific) using a BetaBasic C18 reverse phase column (Thermo Scientific). Separation was carried out with two mobile phase solutions consisting of solution (A) water with 0.1% formic acid and solution (B) 100% ACN. The gradient profile of the chromatography runs was as follows: from 0 to 0.1 min 8% solution B, ramp step wise (37% to 60% solution B) from 0.1 to 6.5 min then holding for one minute before ramping down from 60% to 10% from 7.5 to 8 min. This was followed a hold at 10% solution B for one minute. […] The column was equilibrated in 8% solution B at 40° C. and the flow rate was set to 0.2 mL min^−1. Mass spectrometry analysis of fractions was carried out using a Thermo TSQ Quantum Ultra triple quadrupole mass spectrometer (Fisher Scientific). Data were analyzed using Xcalibur software (Thermo Scientific); the following parameters were used to detect minocycline and the internal control doxycycline: 458.208 m/z→282.971 m/z (collision energy=43, tube lens=119) for minocycline and 445.144 m/z→266.900 m/z (collision energy=39, tube lens=127) for doxycycline. Analysis of the raw data was conducted by using the area under the curve calculations with the Genesis algorithm to determine the concentration in each sample. The difference between the peak intensity and the y intercept of pre-established minocycline and doxycycline standard curves was divided by the slope of the standard curve to quantify the amount of minocycline within each sample. The total concentration of minocycline within each cell was calculated by normalizing to the number of cells within each corresponding culture.

Structure (SMILES) | Log-reduction Colony Forming Units (ml^−1) [1] [log] | MEC [1] [µg/mL] | Minocylcine Per Cell (femtomoles cell^−1) [2] [femtomoles cell^−1]
N#CC1=C(N)n2c(s/c(=C\c3ccccc3Cl)c2=O)=C(C#N)C1c1ccccc1Cl (stereo not drawn) [ST006953] | 2.71 | 4 | 4.31E−08
Cc1ccc(C2N(Cc3ccccc3)CCN2Cc2ccccc2)s1 [ST008277] | 5.19 | 4 | 4.41E−08
Cc1cc(O)c(C(C)C)cc1C1(c2cc(C(C)C)c(O)cc2C)OC(=O)c2ccccc21 [ST009495] | 2.23 | 2 | 4.7E−08
Oc1ccccc1/C=N/c1nccs1 [ST009531] | 2.77 | 2 | 5.88E−09
NS(=O)(=O)c1ccc(/N=C/c2ccccc2O)cc1 [ST009655] | 6.67 | 2 | 2.61E−07
Cc1ccc(/C=N/c2ccc(S(N)(=O)=O)cc2)cc1 [ST009696] | 5.67 | 4 | 8.2E−09
CCOC(=O)C1=C(N)OC2=C(C(=O)CCC2)C1c1sccc1C (stereo not drawn) [ST009847] | 4.97 | 2 | 2.54E−07
N#CC1=C(N)OC2=C(C(=O)CCC2)C1c1c(Cl)cccc1Cl (stereo not drawn) [ST009850] | 2.47 | 2 | 7.25E−08
O=C(N/N=C/c1cccs1)c1ccncc1 [ST010260] | 2.66 | 16 | 3.27E−08
NS(=O)(=O)c1ccc(/N=C/c2cc(Br)ccc2O)cc1 [ST010344] | 5.29 | 32 | 2.98E−08
O=S(=O)(Nc1nccs1)c1ccc(/N=C/c2ccc3c(c2)OCO3)cc1 [ST012901] | 2.66 | 2 | 4.16E−09
N=C(N)NS(=O)(=O)c1ccc(/N=C/c2c(O)ccc3ccccc23)cc1 [ST012929] | 4.64 | 32 | 2.74E−08
O=S(=O)(Nc1nccs1)c1ccc(/N=C/c2c(O)ccc3ccccc23)cc1 [ST012934] | 4.42 | 32 | 2.28E−08
O=[N+]([O-])c1cc(/C=N/c2ccc(S(=O)(=O)NC3NC=CS3)cc2)c2c(c1)COCO2 (stereo not drawn) [ST012941] | 6.23 | 64 | 8.12E−09
O=S(=O)(Nc1nccs1)c1ccc(/N=C/c2cc(Cl)cc3c2OCOC3)cc1 [ST012955] | 4.42 | 32 | 1.04E−08
C/C(=N\c1ccc(S(=O)(=O)Nc2nccs2)cc1)c1ccc(O)cc1O [ST012963] | 3.90 | 32 | 3.23E−08

Structure (SMILES) | Log-reduction Colony Forming Units (ml^−1) [1] [log] | MEC [1] [µg/mL] | Minocylcine Per Cell (femtomoles cell^−1) [2] [femtomoles cell^−1]
NNC(=O)CSCc1ccc(Cl)cc1 [ST020992] | 7.43 | 2 | 1.53E−07
C/C(Cn1nnc([N+](=O)[O-])n1)=N\NC(=O)CC#N [ST025773] | 8.00 | 32 | 1.04E−07
CCCCCCCN1C(=O)/C(=c2\sc3n(c2=O)C(c2ccc(OC(=O)c4ccco4)cc2)C(C(=O)OC)=C(C)N=3)c2ccccc21 (stereo not drawn) [ST029434] | 3.02 | 64 | 1.73E−08
N#Cc1c(/N=C/c2ccco2)sc2c1CCCC2 [ST033063] | 1.93 | 2 | 5.84E−08
COc1ccc(C=O)cc1Cn1nnc2ccccc21 [ST033235] | 2.21 | 32 | 6.652E−08
Cc1cccc(N(CC(=O)NC23CC4CC(CC(C4)C2)C3)S(=O)(=O)c2ccccc2)c1 [ST034012] | 2.00 | 2 | 1.55E−07
COc1ccccc1C1N(Cc2ccccc2)CCN1Cc1ccccc1 [ST036365] | 3.50 | 4 | 3.59E−08
CCOC(=O)C1=C(CN2CCCCC2)NC(=O)NC1c1ccc2c(c1)OCO2 (stereo not drawn) [ST058478] | 6.33 | 64 | 1.52E−07
CN1CCN(C(=O)CCSc2ccccc2)CC1 [ST058672] | 5.97 | 4 | 3.2E−07
CC(C)CCOC(=O)C(NS(=O)(=O)c1ccc2c(c1)CCN2S(C)(=O)=O)c1ccccc1 (stereo not drawn) [ST058811] | 6.17 | 4 | 2.48E−07
CCOc1cc(C(=O)N2CC(=O)Nc3ccccc32)cc(OCC)c1OCC [ST059010] | 6.11 | 32 | 3.78E−08
Nc1nnc(SCC(=O)N2CCCC2)s1 [ST059421] | 6.31 | 4 | 1.27E−07
CCN(CC)S(=O)(=O)c1ccc(NC(=O)C2CC(=O)N(c3ccc(OC)cc3)C2)cc1 (stereo not drawn) [ST059822] | 6.23 | 4 | 1.36E−07
CCCCOc1ccc(C(=O)NCCC2=CCCCC2)cc1 [ST060056] | 5.38 | 4 | 4.22E−08
COc1ccc(-c2c3c([nH]c(=O)c2C#N)CCCCC3)cc1 [ST060355] | 6.94 | 32 | 1.23E−08
